In US20210214303A1, “SCORPION VENOM BENZOQUINONE DERIVATIVES AND USES THEREOF” (priority 2018, published 2021):
≈ marks a conversion by molar mass, not a printed value. Entries after “also recorded” stand apart in the source; their conditions may differ.

Columns and labels:
[1] = test system: E. coli; test: activity against gram negative E. coli; format: cell-based
[2] = test system: Staphylococcus aureus; test: disk-diffusion assay; format: cell-based
Method: Ampicillin (5 μg) was used as a positive control.
This difference was confirmed using a broth microdilution assay (FIG. 3D). The minimum inhibitory concentration (MIC) for S. aureus growth was 4 μg/mL for the red 1,4 benzoquinone and 6 μg/mL for the blue 1,4 benzoquinone (FIG. 3D, Table 1). Ampicillin (MIC=0.5 μg/mL) was used as a positive control (ESCMID Eo (2003) Clin. Microbiol. Infect. 9: ix-xv; Pieterse et al., (2010) Brazil. J. Microbiol. 41: 133-145). These compounds were bactericidal at their MICs, killing 90% of S. aureus in 6 h and 99.9% in 24 h (Table 2).

[3] = test system: Mycobacterium tuberculosis H37Rv; test: microbe, parasite or virus in culture; format: cell-based; details: M. tuberculosis H37Rv, broth microdilution
[4] = test system: peripheral blood mononuclear cells (PBMCs); test: cytotoxicity assay, LDH release; format: cell-based, human; details: 25 μM, 12 hours
Method: FIG. 14B illustrates a cytotoxic effect of the 1,4 benzoquinones of the disclosure on peripheral blood mononuclear cells (PBMCs). PBMCs were incubated with the red and blue 1,4 benzoquinones at a concentration of 25 μM for 12 hours, and cell death was evaluated by the release of the stable cytosolic enzyme lactate dehydrogenase. […] Each result is reported as the mean±SD.
Cytotoxicity to PBMCs and to Neoplastic Cells: The cytotoxicity of the 1,4 benzoquinones of the disclosure was tested with peripheral blood mononuclear cells (PBMCs) and various human neoplastic cell lines: A549 (adenocarcinomic lung epithelial cells), Jurkat (T cell leukemia), TE 671 (rhabdomyosarcoma cells) and SH-SY5Y (bone marrow neuroblastoma cells).
PBMCs were obtained from healthy blood donors and isolated by Ficoll-Paque PLUS density gradient centrifugation and resuspended in RPMI-1640 medium supplemented with 10% fetal calf serum. Cells were incubated at 37° C. in 5% CO2 overnight and non-adherent cells were recovered and used for subsequent experiments. The neoplastic cell lines were cultured according to the ATCC guidelines.
For cytotoxicity assays, cells were resuspended in DMEM without phenol red, supplemented with 2% heat-inactivated fetal calf serum. Cells were plated in 96-well polystyrene cell culture plates (2×10^4 to 2×10^5 cells/well depending on the cell type) and incubated at 37° C. in 5% CO2 for 8 hours to promote cell adhesion to the well's surface. The red and blue 1,4 benzoquinones were administered to achieve final concentrations of 1, 5, and 25 μM. Cells were then incubated at 37° C. in 5% CO2 for 12 hours. Following the incubation period, plates were centrifuged at 300×g for 10 minutes and supernatants were harvested to evaluate cell viability with the CytoTox 96@ Non-Radioactive Cytotoxicity Assay (Promega). This assay quantitatively measures lactate dehydrogenase (LDH), a stable cytosolic enzyme that is released upon cell lysis. The released LDH in the culture supernatants was measured with a colorimetric coupled enzymatic assay according to the manufacturer's instructions.

[5] = test system: Jurkat cells; test: Annexin V / viability dye flow cytometry apoptosis assay; format: cell-based; details: 25 μM; 0, 4, 8 and 12 h
Method: In this assay, Jurkat cells were incubated with either the red or blue 1,4 benzoquinone at a concentration of 25 μM for 0, 4, 8 and 12 h. Cells were then stained with the Fixable Viability Dye eFluor 780 and FITC Annexin V and analyzed using flow cytometry. Positive staining with Annexin V is a marker of early apoptosis, and positive staining with both Annexin V and the viability dye is a marker of late apoptosis/necrosis. Double negatives are live cells. Cells were grouped into three categories (live, early apoptotic, and late apoptotic/necrotic). Data from three independent experiments are shown as mean±SEM (standard error of mean).

[6] = test system: clinical isolates of methicillin-resistant S. aureus (MRSA); test: Minimum inhibitory concentration, Table 1, MRSA clinical isolates; format: cell-based, Staphylococcus aureus; on sensitive/resistant (growth): key: S Sensitive (did not grow the crop); R resistant (bacterial growth)
[7] = test system: fresh human erythrocytes; test: Hemolysis assay; format: cell-based; details: 2 hours, all concentrations tested (even higher than 100 μg/mL)
Method: FIG. 14A illustrates a cytotoxic activity assay of the red and blue 1,4 benzoquinones. Hemolysis was evaluated using fresh human erythrocytes. Lysis was evaluated by the absorbance of the supernatant at 415 nm after 2 hours of incubation with different concentrations of the 1,4 benzoquinones. Triton X-100 was used as positive control.
Hemolysis assay: The hemolytic activity was evaluated for both of the 1,4 benzoquinones using fresh human erythrocytes. Fresh human erythrocytes were washed four times with phosphate buffered saline (PBS) and incubated for 2 h at 37° C. with different concentration of the 1,4 benzoquinones. A gradient of Triton X-100 was used as positive control of hemolysis. After incubation, the erythrocytes suspension was centrifuged at 400×g for 10 min and supernatant was recovered. Hemolysis was determined by the absorbance of the supernatant at 415 nm.

[8] = test system: Staphylococcus aureus ATCC 29213; test: Minimum inhibitory concentration, Table 1, strain ATCC 29213; format: cell-based; details: for sensitive/resistant (growth): ATCC 29213; on sensitive/resistant (growth): key: S Sensitive (did not grow the crop); R resistant (bacterial growth)
[9] = test system: Staphylococcus aureus; test: Time-kill assay; format: cell-based; details: for killing of S. aureus: at their MICs

## COC1=CC(=O)C(SC)=C(SC)C1=O [blue 1,4 benzoquinone, 5-methoxy-2,3-bis(methylthio)cyclohexa-2,5-diene-1,4-dione]
[1]
  activity against gram negative E. coli: neither compound was found to have appreciable activity; also recorded: Neither 1,4 benzoquinone showed activity
[2]
  inhibition of S. aureus growth: clear inhibition; also recorded: inhibitory activity
[3]
  MIC: 4 µg/mL (≈ 17.4 µM)
[4]
  PBMCs killed: 50%
  cytotoxic effect on PBMCs (LDH release): cytotoxic against PBMCs
[5]
  apoptosis (Annexin V staining, loss of cell membrane asymmetry): triggers apoptosis
[6]; Staphylococcus aureus, MRSA
  MIC: > 64 µg/mL
[6]; strain 01 2075
  MIC: >64 µg/mL
[6]; strain 01 2075, 0.5 μg/ml
  sensitive/resistant (growth): R
[6]; strain 01 2075, 1 μg/ml
  sensitive/resistant (growth): R
[6]; strain 01 2075, 2 μg/ml
  sensitive/resistant (growth): R
[6]; strain 01 2075, 4 μg/ml
  sensitive/resistant (growth): R
[6]; strain 01 2075, 8 μg/ml
  sensitive/resistant (growth): R
[6]; strain 01 2075, 16 μg/ml
  sensitive/resistant (growth): R
[6]; strain 01 2075, 32 μg/ml
  sensitive/resistant (growth): R
[6]; strain 01 2075, 64 μg/ml
  sensitive/resistant (growth): R
[6]; strain 01 2104
  MIC: >64 µg/mL
[6]; strain 01 2104, 0.5 μg/ml
  sensitive/resistant (growth): R
[6]; strain 01 2104, 1 μg/ml
  sensitive/resistant (growth): R
[6]; strain 01 2104, 2 μg/ml
  sensitive/resistant (growth): R
[6]; strain 01 2104, 4 μg/ml
  sensitive/resistant (growth): R
[6]; strain 01 2104, 8 μg/ml
  sensitive/resistant (growth): R
[6]; strain 01 2104, 16 μg/ml
  sensitive/resistant (growth): R
[6]; strain 01 2104, 32 μg/ml
  sensitive/resistant (growth): R
[6]; strain 01 2104, 64 μg/ml
  sensitive/resistant (growth): R
[6]; strain 09 3001, 0.5 μg/ml
  sensitive/resistant (growth): R
[6]; strain 09 3001, 1 μg/ml
  sensitive/resistant (growth): R
[6]; strain 09 3001, 2 μg/ml
  sensitive/resistant (growth): R
[6]; strain 09 3001, 4 μg/ml
  sensitive/resistant (growth): R
[6]; strain 09 3001, 8 μg/ml
  sensitive/resistant (growth): R
[6]; strain 09 3001, 16 μg/ml
  sensitive/resistant (growth): R
[6]; strain 09 3001, 32 μg/ml
  sensitive/resistant (growth): R
[6]; strain 09 3001, 64 μg/ml
  sensitive/resistant (growth): R
[6]; strain 21 2001
  MIC: >64 µg/mL
[6]; strain 21 2001, 0.5 μg/ml
  sensitive/resistant (growth): R
[6]; strain 21 2001, 1 μg/ml
  sensitive/resistant (growth): R
[6]; strain 21 2001, 2 μg/ml
  sensitive/resistant (growth): R
[6]; strain 21 2001, 4 μg/ml
  sensitive/resistant (growth): R
[6]; strain 21 2001, 8 μg/ml
  sensitive/resistant (growth): R
[6]; strain 21 2001, 16 μg/ml
  sensitive/resistant (growth): R
[6]; strain 21 2001, 32 μg/ml
  sensitive/resistant (growth): R
[6]; strain 21 2001, 64 μg/ml
  sensitive/resistant (growth): R
[7]
  hemolytic activity: no erythrocyte hemolysis was observed; also recorded: Neither 1,4 benzoquinone showed hemolytic activity
[8]; 0.5 μg/ml
  sensitive/resistant (growth): R
[8]; 1 μg/ml
  sensitive/resistant (growth): S
[8]; 2 μg/ml
  sensitive/resistant (growth): S
[8]; 4 μg/ml
  sensitive/resistant (growth): S
[8]; 8 μg/ml
  sensitive/resistant (growth): S
[8]; 16 μg/ml
  sensitive/resistant (growth): S
[8]; 32 μg/ml
  sensitive/resistant (growth): S
[8]; 64 μg/ml
  sensitive/resistant (growth): S
[8]; ATCC29213, Staphylococcus aureus ATCC 29213
  MIC: 1 µg/mL (≈ 4.34 µM)
[9]; 0 hr incubation, 2 × MIC
  Colony-forming Units (CFU): 339 Colony-forming units per plate
[9]; 0 hr incubation, MIC
  Colony-forming Units (CFU): 352 Colony-forming units per plate
[9]; 6 hr incubation, 2 × MIC
  Colony-forming Units (CFU): 21 Colony-forming units per plate
[9]; 6 hr incubation, MIC
  Colony-forming Units (CFU): 45 Colony-forming units per plate
[9]; 12 hr incubation, 2 × MIC
  Colony-forming Units (CFU): 2 Colony-forming units per plate
[9]; 12 hr incubation, MIC
  Colony-forming Units (CFU): 1 Colony-forming units per plate
[9]; 24 hr incubation, 2 × MIC
  Colony-forming Units (CFU): 0 Colony-forming units per plate
[9]; 24 hr incubation, MIC
  Colony-forming Units (CFU): 2 Colony-forming units per plate
[9]; in 6 h
  killing of S. aureus: 90%
[9]; in 24 h
  killing of S. aureus: 99.9%
